Data as given in patent US12145923B2, “Tetrahydroisoquinoline compound, preparation method therefor, pharmaceutical composition containing same, and use thereof” (SHANGHAI INSTITUTE OF MATERIA MEDICA, CHINESE ACADEMY OF …, priority 2018, dated 2024).
pIC50: −log10 of the molar value. Read-outs that look alike come from different tables or passages of the source.

How the values were obtained:
[1] = target: Human PDE4D catalytic domain (Homo sapiens (Human), UniProt Q08499); assay: Scintillation Proximity Assay (SPA), inhibition of PDE4D catalytic domain activity; format: biochemical; conditions: for inhibition at 1 µM: read-out: PDE4D enzyme activity inhibition rate %
Sequence of Human PDE4D catalytic domain (Q08499 386-715): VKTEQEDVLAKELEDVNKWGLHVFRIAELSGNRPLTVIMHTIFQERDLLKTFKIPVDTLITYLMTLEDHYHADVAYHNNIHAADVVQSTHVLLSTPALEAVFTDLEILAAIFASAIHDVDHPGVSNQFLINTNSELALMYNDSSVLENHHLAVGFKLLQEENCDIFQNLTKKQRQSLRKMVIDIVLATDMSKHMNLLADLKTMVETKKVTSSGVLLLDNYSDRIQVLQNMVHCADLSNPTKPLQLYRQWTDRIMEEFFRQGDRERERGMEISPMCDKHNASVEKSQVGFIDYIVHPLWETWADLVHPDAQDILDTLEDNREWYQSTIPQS
Description: The scintillation Proximity Assay (SPA) method was used to determine the inhibitory effect of compounds on the activity of PDE4D catalytic domain. Human PDE4D catalytic domain protein was obtained by expression and purification in E. coli. […] [^3H]-cAMP, scintillation beads (RPNQO150, Perkin Elmer), and 96-well scintillation microplates (Isoplate-96, Perkin Elmer) were purchased from Perkin Elmer Company.
Finally, 10 μl [^3H]-cAMP (0.005 μCi/μl) was added and incubated for 30 min at 30° C. in a water bath. 50 μl SPA beads was added to quench the reaction, shaked appropriately, and stood for 20 minutes. A microplate scintillation counter was used.

[2] = system: TNF-α secretion in PBMC; assay: Inhibition of LPS-stimulated TNF-α secretion in PBMC (ELISA); format: cell-based; conditions: Homo sapiens, TNF-α secretion in PBMC; for inhibition at 10 µM / inhibition at 1 µM: read-out: Inhibition rate %
Excerpt: According to the difference in cell density in human blood, PBMC (peripheral blood mononuclear cell, PBMC) was directly separated and purified by gradient centrifugation using lymphocyte separation fluid. The cell type was mononuclear cells in blood, mainly including lymphocytes (T/B), monocytes, macrophages, dendritic cells and other minor cell types, of which lymphocytes account for a large part, which can directly in vitro simulate the blood immune environment.
PBMC cells isolated from human blood were implanted into 96-well plates at 2*10^5/ml; compounds in gradients were added, with at least three replicates for each gradient; After the PBMCs were incubated at 37° C., 5% CO2 for 1 hour, LPS was added (the final concentration was 10 ug/ml) to stimulate PBMC to express TNF-α, and incubated for another 18-20 h at 37° C., 5% C02. The 96-well plate was collected. The background control with no stimulant and stimulation control wells were also set, with a total volume of 200 μl. The culture supernatant was collected by centrifugation, and the expression level of TNF-α in the culture supernatant was detected by ELISA.

[3] = system: RAW 264.7 cells; assay: Cytotoxicity on RAW 264.7 cells (CCK-8 method); format: cell-based, mouse
Description: Mouse RAW 264.7 cells were purchased from American Type Culture Collection (Manassas, VA, USA), and cultivated in DMEM culture medium (Hyclone, South Logan, UT, USA) containing 10% fetal bovine serum (Hyclone, South Logan, UT, USA). Cells were collected and counted before use, and inoculated in a 96-well plate (Corning, NY, USA) at 1×10^5/well. […] 20 μl of CCK-8 solution (Dojindo, Kumamoto, Japan) was added at 30 min before the end of the culture. After the cultivation was ended, the absorbance OD value was measured at 450 nm (reference 650 nm) on amicroplate reader (Molecular Devices, Sunnyvale, CA, USA). The toxicity of the compound on RAW 264.7 cells was calculated by dividing the OD value of the test sample by the OD value of the cell control well, which was labeled as the cell survival rate M %.

[4] = system: tumor necrosis factor-α secretion in RAW 264.7 cells; assay: Inhibition of LPS-stimulated tumor necrosis factor-α secretion in RAW 264.7 cells (ELISA); format: cell-based, mouse; conditions: Mus musculus, RAW264.7, 4 h, read-out: Tumor necrosis factor-α inhibition rate/%; for inhibition at 0.5 µM: RAW 264.7, 0.5 μM; for inhibition at 5 µM: RAW 264.7, 5 μM; for inhibition at 50 µM: RAW 264.7, 50 μM

COc1cc2c(cc1OCc1ccccc1)C(CCc1c[nH]c3ccccc13)N(C=O)CC2 (stereo not shown) [Compound A5, 1-(2-(1H-indol-3-yl)ethyl)-7-(benzyloxy)-6-methoxy-3,4-dihydroisoquinoline-2(1H)-formaldehyde] was tested, and the inhibition at 1 µM ([1]; Compound concentration: 1 μM) was 10.8%, the inhibition at 10 µM [2] was 23.8% and the Cell survival rate/% ([3]; RAW 264.7, 0.5 μM) was 118.7%. For the same molecule, the Cell survival rate/% ([3]; RAW 264.7, 5 μM) was 120.8%, the Cell survival rate/% ([3]; RAW 264.7, 50 μM) was 111.3% and the inhibition at 0.5 µM [4] was -0.2%. For the same molecule, the inhibition at 5 µM [4] was -8.1% and the inhibition at 50 µM [4] was 79.3%.

COc1cc2c(cc1OC1CCCC1)C(CCc1c[nH]c3cc(C)ccc13)N(C=O)CC2 (stereo not shown) [Compound C3, 7-(cyclopentyloxy)-6-methoxy-1-(2-(6-methyl-1H-indol-3-yl)ethyl)-3,4-dihydroisoquinoline-2(1H)-formaldehyde] was tested, and the inhibition at 1 µM ([1]; Compound concentration: 1 μM) was 6.4%, the inhibition at 10 µM [2] was 36.4% and the Cell survival rate/% ([3]; RAW 264.7, 0.5 μM) was 115.1%. The Cell survival rate/% ([3]; RAW 264.7, 5 μM) was 120.5%, the Cell survival rate/% ([3]; RAW 264.7, 50 μM) was 112.6% and the inhibition at 0.5 µM [4] was -0.9%. It also gave an inhibition at 5 µM [4] of 5.9% and an inhibition at 50 µM [4] of 59.7%.

COc1cc2c(cc1OC)C(CCc1c[nH]c3ccccc13)N(CC(F)(F)F)CC2 (stereo not shown) [Compound B6, 1-(2-(1H-indol-3-yl)ethyl)-6,7-dimethoxy-2-(2,2,2-trifluoroethyl)-1,2,3,4-tetrahydroisoquinoline] was tested, and the inhibition at 1 µM ([1]; Compound concentration: 1 μM) was 19.5%, the inhibition at 10 µM [2] was -23.2% and the Cell survival rate/% ([3]; RAW 264.7, 0.5 μM) was 117.3%. It also gave a Cell survival rate/% ([3]; RAW 264.7, 5 μM) of 87%, a Cell survival rate/% ([3]; RAW 264.7, 50 μM) of 95.3% and an inhibition at 0.5 µM [4] of 8.2%. For the same molecule, the inhibition at 5 µM [4] was -7.1% and the inhibition at 50 µM [4] was 67.5%.

Molecule COc1cc2c(cc1OC1CCCC1)C(CCc1c[nH]c3ccc(C)cc13)N(C=O)CC2 (stereo not shown) [Compound C2, 7-(cyclopentyloxy)-6-methoxy-1-(2-(5-methyl-1H-indol-3-yl)ethyl)-3,4-dihydroisoquinoline-2(1H)-formaldehyde] has an inhibition at 1 µM ([1]; Compound concentration: 1 μM) of 21.5%, an inhibition at 1 µM [2] of 15.8% and an inhibition at 10 µM [2] of 52.4%. The Cell survival rate/% ([3]; RAW 264.7, 0.5 μM) was 112.4%, the Cell survival rate/% ([3]; RAW 264.7, 5 μM) was 106.3% and the Cell survival rate/% ([3]; RAW 264.7, 50 μM) was 62.7%. It also gave an inhibition at 0.5 µM [4] of -18.2%, an inhibition at 5 µM [4] of -24.5% and an inhibition at 50 µM [4] of 97.2%.

In the case of COCCN1CCc2cc(OC)c(OC)cc2C1CCc1c[nH]c2ccccc12 (stereo not shown) [Compound B2, 1-(2-(1H-indol-3-yl)ethyl)-6,7-dimethoxy-2-(2-methoxyethyl)-1,2,3,4-tetrahydroisoquinoline], the inhibition at 1 µM ([1]; Compound concentration: 1 μM) was 19.2%, the inhibition at 10 µM [2] was 25.7% and the Cell survival rate/% ([3]; RAW 264.7, 0.5 μM) was 88.3%. For the same molecule, the Cell survival rate/% ([3]; RAW 264.7, 5 μM) was 83.5%, the Cell survival rate/% ([3]; RAW 264.7, 50 μM) was 71.4% and the inhibition at 0.5 µM [4] was 6.2%. The inhibition at 5 µM [4] was 18.8% and the inhibition at 50 µM [4] was 83.9%.

COCC(=O)N1CCc2cc(OC)c(OC)cc2[C@@H]1CCc1c[nH]c2ccccc12 [(S)-B11, (S)-1-(1-(2-(1H-indol-3-yl)ethyl)-6,7-dimethoxy-3,4-dihydroisoquinoline-2(1H)-yl)-2-methoxyethane-1-one] gave an inhibition at 1 µM ([1]; Compound concentration: 1 μM) of 82.9%, an IC50 ([1]; PDE4D, unit given as mM, read-out: IC50) of 0.00019 mM and an inhibition at 1 µM [2] of 60.1%. For the same molecule, the inhibition at 10 µM [2] was 90.7%, the pIC50 ([2]; read-out: IC50) was 6.62 and the Cell survival rate/% ([3]; RAW 264.7, 0.5 μM) was 110.9%. It also gave a Cell survival rate/% ([3]; RAW 264.7, 5 μM) of 111.2%, a Cell survival rate/% ([3]; RAW 264.7, 50 μM) of 102.2% and an inhibition at 0.5 µM [4] of -7.8%. The inhibition at 5 µM [4] was 1.1% and the inhibition at 50 µM [4] was 51.3%.

In the case of COc1cc2c(cc1OC1CCCC1)[C@H](CCc1c[nH]c3cc(C)ccc13)N(C=O)CC2 [(S)-C3, (S)-7-(cyclopentyloxy)-6-methoxy-1-(2-(6-methyl-1H-indol-3-yl)ethyl)-3,4-dihydroisoquinoline-2(1H)-formaldehyde], the inhibition at 1 µM ([1]; Compound concentration: 1 μM) was 24.1%, the inhibition at 1 µM [2] was 12.1% and the inhibition at 10 µM [2] was 79.2%. It also gave a Cell survival rate/% ([3]; RAW 264.7, 0.5 μM) of 88.2%, a Cell survival rate/% ([3]; RAW 264.7, 5 μM) of 100% and a Cell survival rate/% ([3]; RAW 264.7, 50 μM) of 89.2%. For the same molecule, the inhibition at 0.5 µM [4] was 6.3%, the inhibition at 5 µM [4] was 6% and the inhibition at 50 µM [4] was 95.1%.

In the case of CCOc1cc2c(cc1OC)CCN(S(=O)(=O)c1ccccc1F)[C@H]2CCc1c[nH]c2ccc(OC)cc12 [(S)-C57, (S)-7-ethoxy-6-methoxy-1-(2-(5-methoxy-1H-indol-3-yl)ethyl)-2-(2-fluorophenyl)sulfonyl-1,2,3,4-tetrahydroisoquinoline], the inhibition at 1 µM ([1]; Compound concentration: 1 μM) was 66.5%.

COC(=O)c1cc2c(cc1OC)CCN(C=O)[C@H]2CCc1c[nH]c2ccc(OC)cc12 [(S)-C66, methyl-(S)-2-formyl-6-methoxy-1-(2-(5-methoxy-1H-indol-3-yl)ethyl)-1,2,3,4-tetrahydroisoquinoline-7-carboxylate] was tested, and the inhibition at 1 µM [1] was 88.4%.

COc1ccc2[nH]cc(CC[C@H]3c4cc(OC(F)F)c(OC)cc4CCN3C=O)c2c1 [(S)-C64, (S)-7-difluoromethoxy-1-(2-(5-methoxy-1H-indol-3-yl)ethyl)-6-methoxy-3,4-dihydroisoquinoline-2(1H)-formaldehyde] was tested, and the inhibition at 1 µM [1] was 76.5%.

CCOc1cc2c(cc1OC)CCN(C=O)[C@H]2CCc1c[nH]c2ccc(OC(F)(F)F)cc12 [(S)-C76, (S)-7-ethoxy-6-methoxy-1-(2-(5-trifluoromethoxy-1H-indol-3-yl)ethyl)-3,4-dihydroisoquinoline-2(1H)-formaldehyde] was tested, and the inhibition at 1 µM ([1]; Compound concentration: 1 μM) was 92.3%.

CCOc1cc2c(cc1OC)CCN(S(=O)(=O)C1CC1)[C@H]2CCc1c[nH]c2ccc(OC)cc12 [(S)-C48, (S)-7-ethoxy-6-methoxy-1-(2-(5-methoxy-1H-indol-3-yl)ethyl)-2-cyclopropylsulfonyl-1,2,3,4-tetrahydroisoquinoline] gave an inhibition at 1 µM ([1]; Compound concentration: 1 μM) of 62%.

With CCOc1cc2c(cc1OC)CCN(S(=O)(=O)C1CCCCC1)[C@H]2CCc1c[nH]c2ccc(OC)cc12 [(S)-C49, (S)-7-ethoxy-6-methoxy-1-(2-(5-methoxy-1H-indol-3-yl)ethyl)-2-cyclohexylsulfonyl-1,2,3,4-tetrahydroisoquinoline] the inhibition at 1 µM ([1]; Compound concentration: 1 μM) was 70.8%.

CCOc1cc2c(cc1OC)CCN(C(=O)C(F)(F)F)[C@H]2CCc1c[nH]c2ccc(OC)cc12 [(S)-C54, (S)-7-ethoxy-1-(2-(5-methoxy-1H-indol-3-yl)ethyl)-6-methoxy-3,4-dihydroisoquinoline-2(1H)-trifluoroethane-1-one] gave an inhibition at 1 µM ([1]; Compound concentration: 1 μM) of 46%.

CCOc1cc2c(cc1OC)CCN(S(=O)(=O)c1cccnc1)[C@H]2CCc1c[nH]c2ccc(OC)cc12 [(S)-C55] was tested, and the inhibition at 1 µM ([1]; Compound concentration: 1 μM) was 20.5%.

COc1ccc2[nH]cc(CC[C@H]3c4cc(OC(F)(F)F)c(OC)cc4CCN3C=O)c2c1 [(S)-C63, (S)-7-trifluoromethoxy-1-(2-(5-methoxy-1H-indol-3-yl)ethyl)-6-methoxy-3,4-dihydroisoquinoline-2(1H)-formaldehyde] gave an inhibition at 1 µM [1] of 75.3%.

CCOc1cc2c(cc1OC)CCN(S(=O)(=O)c1ccc(Br)c(F)c1)[C@H]2CCc1c[nH]c2ccc(OC)cc12 [(S)-C56, (S)-7-ethoxy-6-methoxy-1-(2-(5-methoxy-1H-indol-3-yl)ethyl)-2-(3-fluoro-4-bromophenyl) sulfonyl-1,2,3,4-tetrahydroisoquinoline] gave an inhibition at 1 µM ([1]; Compound concentration: 1 μM) of 66.4%.

In the case of CCOc1cc2c(cc1OC)CCN(S(=O)(=O)c1ccc(F)c(F)c1)[C@H]2CCc1c[nH]c2ccc(OC)cc12 [(S)-C51, (S)-7-ethoxy-6-methoxy-1-(2-(5-methoxy-1H-indol-3-yl)ethyl)-2-(3,4-difluorophenyl)sulfonyl-1,2,3,4-tetrahydroisoquinoline], the inhibition at 1 µM ([1]; Compound concentration: 1 μM) was 37.9%.

CCOc1cc2c(cc1OC)CCN(S(=O)(=O)c1ccccc1)[C@H]2CCc1c[nH]c2ccc(OC)cc12 [(S)-C47, (S)-7-ethoxy-6-methoxy-1-(2-(5-methoxy-1H-indol-3-yl)ethyl)-2-phenylsulfonyl-1,2,3,4-tetrahydroisoquinoline] showed an inhibition at 1 µM ([1]; Compound concentration: 1 μM) of 49.4%.

CNC(=O)c1cc2c(cc1OC)CCN(C=O)[C@H]2CCc1c[nH]c2ccc(OC)cc12 [(S)-C69, (S)-2-formyl-6-methoxy-1-(2-(5-methoxy-1H-indol-3-yl)ethyl)-N-methyl-1,2,3,4-tetrahydroisoquinoline-7-carboxamide] gave an inhibition at 1 µM ([1]; Compound concentration: 1 μM) of 80.5%.

CCOc1cc2c(cc1OC)CCN(S(=O)(=O)c1ccc(F)cc1)[C@H]2CCc1c[nH]c2ccc(OC)cc12 [(S)-C58, (S)-7-ethoxy-6-methoxy-1-(2-(5-methoxy-1H-indol-3-yl)ethyl)-2-(4-fluorophenyl)sulfonyl-1,2,3,4-tetrahydroisoquinoline] was tested, and the inhibition at 1 µM ([1]; Compound concentration: 1 μM) was 49.7%.

Work on COc1ccc2[nH]cc(CC[C@H]3c4cc(C(N)=O)c(OC)cc4CCN3C=O)c2c1 [(S)-C70, (S)-2-formyl-6-methoxy-1-(2-(5-methoxy-1H-indol-3-yl)ethyl)-1,2,3,4-tetrahydroisoquinoline-7-carboxamide] yielded an inhibition at 1 µM ([1]; Compound concentration: 1 μM) of 83.8%.

Work on CCOc1cc2c(cc1OC)CCN(C(=O)C(F)F)[C@H]2CCc1c[nH]c2ccc(OC)cc12 [(S)-C59, (S)-7-ethoxy-1-(2-(5-methoxy-1H-indol-3-yl)ethyl)-6-methoxy-3,4-dihydroisoquinolin-2(1H)-2,2-difluoroethane-1-one] yielded an inhibition at 1 µM ([1]; Compound concentration: 1 μM) of 42.4%.

CCOc1cc2c(cc1OC)CCN(C=O)[C@H]2CCc1c[nH]c2ccc(C#N)cc12 [(S)-C65, (S)-7-ethoxy-6-methoxy-1-(2-(5-cyano-1H-indol-3-yl)ethyl)-3,4-dihydroisoquinoline-2(1H)-formaldehyde] was tested, and the inhibition at 1 µM ([1]; Compound concentration: 1 μM) was 68.7%.

For COc1ccc2[nH]cc(CC[C@H]3c4cc(C(F)F)c(OC)cc4CCN3C=O)c2c1 [(S)-C71, (S)-7-difluoromethyl-1-(2-(5-methoxy-1H-indol-3-yl)ethyl)-6-methoxy-3,4-dihydroisoquinoline-2(1H)-formaldehyde], the inhibition at 1 µM [1] was 81.8%.
